# According to patent US20150273027A1, “LIQUID PHARMACEUTICAL COMPOSITION OF FACTOR VII POLYPEPTIDE” (Novo Nordisk Healthcare AG, priority 2012, published 2015):
# Changes are numbered by the printed parent chain. pKd: −log10 of the molar value.
# Columns and labels:
# SF-rFVIIa = target: T1, SF-rFVIIa (Homo sapiens, UniProt P08709); experiment: Isothermal titration calorimetry (iTC200) binding to SF-rFVIIa; details: for pKd: SF-rFVIIa
# T1 construct: made in house
# T1 sequence (P08709 213-466 limits assumed): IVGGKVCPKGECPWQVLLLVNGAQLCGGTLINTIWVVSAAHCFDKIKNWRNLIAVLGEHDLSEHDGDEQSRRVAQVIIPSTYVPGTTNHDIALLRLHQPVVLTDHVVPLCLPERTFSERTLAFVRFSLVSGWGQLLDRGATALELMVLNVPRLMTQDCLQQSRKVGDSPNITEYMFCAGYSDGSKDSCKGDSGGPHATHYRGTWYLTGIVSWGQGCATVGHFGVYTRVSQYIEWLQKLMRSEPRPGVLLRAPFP
# T1 sequence (P08709 61-212 limits assumed): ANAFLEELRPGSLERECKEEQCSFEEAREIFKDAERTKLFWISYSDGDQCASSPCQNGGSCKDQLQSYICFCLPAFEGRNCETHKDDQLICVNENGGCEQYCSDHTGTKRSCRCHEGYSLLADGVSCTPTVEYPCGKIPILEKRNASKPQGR
# Protocol: (§1) All proteases were dialyzed extensively in binding buffer: 10 mM HEPES pH 7.4, 150 mM NaCl, 0.005% v/v Surfactant P20, 5 mM CaCl2. All binding experiments were carried out in binding buffer unless otherwise indicated. The active site stabilizing agent set forth Formula I was dissolved in 50 mM Tris pH 8.0 to a final concentration of 9 mM giving a yellow colour. Isothermal titration calorimetry (iTC200, from GE healthcare) was chosen as the method of choice for determining binding parameters. Each iTC200 run involved filling the cell with the protease (approximately 200 μL) and the syringe with the active site stabilizing agent (approximately 40 μL). Temperature was set as required and the protease was allowed to equilibrate under given experimental conditions (approximately 10 minutes). Typically 17-20 injections (of 2-2.5 μL) of active site stabilizing agent into the cell, containing protease, were performed. The first injection was always of 0.2 μL and was discarded from the final data analysis. Stirring speed was set between 700-1000 rpm. Filter period for data collection was 5 sec with a high feedback mode setting. Each titration was spaced by 120 sec. Raw data was processed to set the baseline, integrate each peak to get a final isotherm. This isotherm was fit to a single-site model to yield Kd, stoichiometry (n), ΔH, and ΔS values to complete characterization of binding of active site stabilizing agents to a protease. Each binding experiment was repeated at least twice. Tables 14, 15 and 16 summarizes binding of active site binding agents to SF-FVIIa and Vatreptacog alfa under varying solution conditions as described below.
# rFVIIa = target: T2, rFVIIa (Homo sapiens, UniProt P08709); experiment: Isothermal titration calorimetry (iTC200) binding to rFVIIa; details: for pKd: binding buffer
# T2 construct: made in house
# T2 sequence (P08709 213-466 limits assumed): T1 sequence (P08709 213-466 limits assumed)
# T2 sequence (P08709 61-212 limits assumed): T1 sequence (P08709 61-212 limits assumed)
# Protocol: as §1
# V158D/E296V/M298Q-FVIIa = target: T3, V158D/E296V/M298Q-FVIIa (Homo sapiens, UniProt P08709, E356V/M358Q/V218D); experiment: Isothermal titration calorimetry (iTC200) binding to V158D/E296V/M298Q-FVIIa
# T3 construct: made in house
# T3 sequence (P08709 213-466 V218D/E356V/M358Q limits assumed): T1 sequence (P08709 213-466 limits assumed) with V6D, E144V, M146Q
# T3 sequence (P08709 61-212 limits assumed): T1 sequence (P08709 61-212 limits assumed)
# Protocol: as §1
# [1] = test system: tail bleeding in F8-KO mice; experiment: Tail bleeding in FVIII knock out (F8-KO) mice; assay type: in vivo; details: dose 3 mg/kg i.v.
# From the text: The biological in vivo efficacy and potency of recombinant factor VIIa (rFVIIa) co-formulated with the active site stabilizing agent with Formula I in the molar ratio 1:[…]; 2.5; 5; […] in FVIII knock out (F8-KO) mice (Bi L, Sarkar R, Naas T, Lawler A M, Pain J, Shumaker S L et al. Further characterization of factor VIII-deficient mice created by gene targeting: RNA and protein studies. Blood 1996; 88:3446-).
# Tail bleeding was initiated in Isofluran anesthetized F8-KO mice by transection of 4 mm of the tip of the tail 5 min after dosing rFVIIa, rFVIIa:active site stabilizing agent (1:1.75) or vehicle iv in a tail vein in the mice. Bleeding time and blood loss was measured for a 30 minutes period in 37° C. saline as described elsewhere (Elm T; Karpf D M; Øvlisen K; Pelzer H; Ezban M; Kjalke M; Tranholm M. Pharmacokinetics and pharmacodynamics of a new recombinant FVIII (N8) in haemophilia A mice. Haemophilia, 2012; 18 (1), 139-145). […] The bleeding time vs dose of rFVIIa and rFVIIa:active site stabilizing agent (1:1.75) show very similar dose response curves.
# The in vivo effect of serum free recombinant FVIIa (SF-rFVIIa) and SF-rFVIIa co-formulated with the active site stabilizing agent set forth in Formula I in the molar ratio 1:2.5 was studied with the same design in the tail bleeding model in F8-KO mice at the concentration 1; 2.5; 5; 10 and 15 mg/kg. […]
# [2] = iTC200, binding buffer pH 7.4, 20° C.
compound,measurement,setting,value
"COc1cccc([C@H](C)NC(=O)CNC(=O)Nc2ccc(C(=N)N)cc2)c1 [Formula A, S-2-[3-(4-Carbamimidoylphenyl)ureido]-N-[1-(3-methoxyphenyl)-ethyl]-acetamide, reference compound]",pKd,SF-rFVIIa; [2],5.75
"N=C(N)c1ccc2[nH]c(-c3cc(CC(=O)N[C@@H](CC(=O)O)C(=O)O)cc(-c4cc(S(N)(=O)=O)ccc4O)c3O)nc2c1 [Formula I, (S)-2-{2-[5-(5-carbamimidoyl-1H-benzoimidazol-2-yl)-6,2′-dihydroxy-5′-sulfamoyl-biphenyl-3-yl]acetylamino}-succinic acid]",fold difference in binding at 20° C. and 37° C.,SF-rFVIIa; SF-FVIIa,17 fold
same,pKd,"SF-rFVIIa; binding buffer, 37° C.",6.48
same,pKd,SF-rFVIIa; [2],7.70
same,pKd,"SF-rFVIIa; pH 5.5, 20° C.",5.81
same,pKd,"SF-rFVIIa; pH 6.5, 20° C.",7.37
same,pKd,"SF-rFVIIa; pH 8.5, 20° C.",6.89
same,fold difference in binding at 20° C. and 37° C.,rFVIIa,23 fold
same,pKd,rFVIIa; 20° C.,7.89
same,pKd,rFVIIa; 37° C.,6.53
same,fold difference in binding at 20° C. and 37° C.,V158D/E296V/M298Q-FVIIa,21 fold
same,pKd,"V158D/E296V/M298Q-FVIIa; binding buffer pH 7.4, 20° C.",8.66
same,pKd,"V158D/E296V/M298Q-FVIIa; binding buffer, 37° C.",7.34
same,pKd,"V158D/E296V/M298Q-FVIIa; pH 5.5, 20° C.",7.11
same,pKd,"V158D/E296V/M298Q-FVIIa; pH 6.5, 20° C.",8.05
same,pKd,"V158D/E296V/M298Q-FVIIa; pH 8.5, 20° C.",8.22
"N=C(N)c1ccc2[nH]c(-c3cc(CC(=O)N[C@H](CC(=O)O)C(=O)O)cc(-c4cc(S(N)(=O)=O)ccc4O)c3O)nc2c1 [Formula II, (R)-2-{2-[5-(5-carbamimidoyl-1H-benzoimidazol-2-yl)-6,2′-dihydroxy-5′-sulfamoyl-biphenyl-3-yl]acetylamino}-succinic acid]",pKd,SF-rFVIIa; [2],7.92
"Vatreptacog Alfa: FVIIa sequence variant, V158D/E296V/M298Q-FVII, three amino acids of the wild-type human sequence replaced","In vivo tail bleeding as blood loss, mean",[1],1207 nmol haemoglobin
